Data reported in patent EP4775567A1, “IONIZABLE CATIONIC LIPID COMPOUNDS AS WELL AS PREPARATION METHOD THEREFOR AND USE THEREOF” (Scindy Pharmaceutical (Suzhou) Co., Ltd, priority 2023, dated 2025).

Assays:
[1] = Apparent pKa of blank lipid nanoparticles by TNS fluorescence; format: physicochemical; settings: compound:DSPC:cholesterol:ALC-0159 50:10:38.5:1.5, pH 2 to 11
Description: The apparent pKa of lipid nanoparticles is correlated with the efficacy of lipid nanoparticles in delivering nucleic acids (see Jayaraman et al., Angewandte Chemie, International Edition (2012), 51(34), 8529-8533; Semple et al., Nature Biotechnology 28, 172-176 (2010)). The apparent pKa of nanoparticles prepared from different lipid compounds was determined using fluorescence based on 2-(p-toluidino)-6-naphthalenesulfonic acid (TNS). The fluorescent probe has no fluorescence in water but […] emits fluorescence when bound to lipid membranes. Blank lipid nanoparticles were prepared at a molar ratio of ionizable cationic lipid compound (each exemplary compound) : DSPC : cholesterol : 2-[(polyethylene glycol)-2000]-N,N-ditetradecylacetamide (ALC-0159) of 50:10:38.5:1.5. They were diluted in different pH buffer solutions having a pH ranging from 2 to 11. An aqueous TNS solution was added and mixed. Then, the mixtures were added to a 96-well plate (black bottom), respectively. Detection was performed with excitation wavelength at 325 nm and the emission wavelength at 435 nm, with top detection. Measurement was performed 10 times for each well, and the fluorescence intensity was recorded. A pH-fluorescence intensity curve was plotted to determine the apparent pKa.

[2] = Particle size and polydispersity index (PDI) by dynamic light scattering; format: physicochemical; settings: luciferase mRNA lipid nanoparticles prepared from the compound; 25°C
Description: (§1) Luciferase mRNA was diluted in a 10-100 mM sodium citrate buffer solution at pH 4.0, with the concentration of the mRNA solution being 135 µg/ml. A mixed lipid ethanol solution was prepared at a molar ratio of ionizable cationic lipid compound (each exemplary compound) : DSPC: cholesterol : 2-[(polyethylene glycol)-2000]-N,N-ditetradecylacetamide (ALC-0159) of 50:10:38.5:1.5. The mRNA solution and the mixed lipid solution were mixed at a volume ratio of 3:1 in a nanodrug preparation device, followed by ultrafiltration to obtain luciferase mRNA lipid nanoparticles.
(§2) • 1. Determination of particle size and polydispersity index (PDI): The average particle size and PDI of the nanoparticle sample solutions in the examples were determined by dynamic light scattering using Malvern ZetaSizer Nano ZS90. The measurement angle was 90°, the refractive index of the dispersant was 1.330, and the test temperature was 25°C. • 2. Zeta potential: The Zeta potential of the nanoparticle sample solutions in the examples was determined by electrophoretic light scattering (ELS) using Malvern ZetaSizer Nano ZS90. Refractive index of the dispersant: 1.330, Test temperature: 25°C. • 3. Encapsulation Rate: The Encapsulation Rate of luciferase mRNA in lipid nanoparticles was determined using a Quant-it Ribogreen RNA quantitation kit (ThermoFisher Scientific, UK) in accordance with the manufacturer's instructions.

[3] = Zeta potential by electrophoretic light scattering; format: physicochemical; settings: luciferase mRNA lipid nanoparticles prepared from the compound; 25°C
Description: as §1, §2

[4] = Encapsulation Rate of luciferase mRNA in lipid nanoparticles (Quant-it Ribogreen RNA kit); format: physicochemical; settings: luciferase mRNA in lipid nanoparticles prepared from the compound
Description: as §1, §2

HEK 293T cells = assay: In vitro transfection efficiency of luciferase mRNA lipid nanoparticles (luciferase activity); format: cell-based; settings: for HEK 293T Cell Luciferase Activity: 100 ng dose, 96-well plate, 24 h incubation, luciferase mRNA lipid nanoparticles
Description: as §1
HEK-293T cells were used to evaluate the in vitro transfection efficiency of lipid nanoparticle compositions prepared from each exemplary compound. HEK293T cells were routinely cultured in DMEM + 10% FBS medium to ensure the cells were in the logarithmic growth phase. One day before transfection, the cells were seeded into a 96-well culture plate at an appropriate cell density and grown overnight. At the time of transfection, the cell confluency needed to reach 70-90%. The lipid nanoparticle compositions prepared from each exemplary compound were diluted into 4 different dose concentrations with DMEM and added to the 96-well cell culture plate, resulting in final concentrations of 400 ng, 200 ng, 100 ng and 50 ng per well, respectively. luciferase plasmid transfected using Lipofectamine 2000 was used as the positive control (PC). After incubation for 24 h in a 5% CO2 incubator at 37°C, the substrate was added to the wells, and the luciferase activity was determined using a microplate reader. […] The luciferase activity of the luciferase mRNA lipid nanoparticles prepared from Compound 1005 in HEK293T cells is shown in Fig. 1.

female Balb/c mice = assay: In vivo transfection efficiency and safety of luciferase mRNA lipid nanoparticles (whole-body live imaging); settings: tail vein injection, single dose 0.3 mpk, 6 h after administration
Description: as §1
6-8 week-old female Balb/c mice were used to evaluate the in vivo transfection efficiency and safety of lipid nanoparticle compositions prepared from each exemplary compound. The lipid nanoparticles prepared from each exemplary compound were administered by tail vein injection at a single dose of 0.3 mpk. At specific time points after administration (e.g., 3 h, 6 h), live imaging of the animals was performed using a PerkinElmer small animal imaging system to determine the bioluminescent signal. The whole-body live imaging of mice at 3 h/6 h after intravenous administration of luciferase mRNA lipid nanoparticles prepared from Compound 1008 is shown in Fig. 2. […] Table 3 Summary of in vitro/in vivo Activity Evaluation of Lipid Nanoparticles Prepared from Compounds

| SMILES | Apparent pKa [1] | Particle Size [2] | Polydispersity Index (PDI) [2] | Zeta Potential [3] | Encapsulation Rate [4] | HEK 293T Cell Luciferase Activity (HEK 293T cells) | Mouse Whole-Body Average Fluorescence Signal (female Balb/c mice) | fluorescence intensity of luciferase expressed in HEK 293T cells (HEK 293T cells; different doses (50-400 ng per well), Fig. 1) |
| --- | --- | --- | --- | --- | --- | --- | --- | --- |
| CCCCCCCCCCCCCC(CC)C(=O)OCC(COC(=O)C(CC)CCCCCCCCCCCCC)(COC(=O)C(CC)CCCCCCCCCCCCC)NCCC(=O)NCCN(C)C (stereo not drawn) [Compound 1009] | 5.23 | 67.63 nm | 0.126 | 2.60 mV | 92.7% | 6.15×10^7 RLU | 5.99×10^4 p/s/cm^2/sr |  |
| CCCCCCCCCC(CCCCCCCC)C(=O)OCC(COC(=O)C(CCCCCCCC)CCCCCCCCC)(COC(=O)C(CCCCCCCC)CCCCCCCCC)NCCCCCCN(C)CCCCO (stereo not drawn) [Compound 1120] | 6.14 | 98.18 nm | 0.049 | -6.05 mV | 97.2% | 2.35×10^4 RLU | 3.52×10^8 p/s/cm^2/sr |  |
| CCCCCCCCCC(CCCCCCCC)C(=O)OCC(COC(=O)C(CCCCCCCC)CCCCCCCCC)(COC(=O)C(CCCCCCCC)CCCCCCCCC)NCCC(=O)NCCN(C)C (stereo not drawn) [Compound 1008] | 6.14 | 73.49 nm | 0.019 | -6.06 mV | 95.1% | 1.86×10^6 RLU | 7.66×10^5 p/s/cm^2/sr |  |
| CCCCCCCCCC(CCCCCCCC)C(=O)OCC(COC(=O)C(CCCCCCCC)CCCCCCCCC)(COC(=O)C(CCCCCCCC)CCCCCCCCC)NCCC(=O)NCCN(C)CCCCO (stereo not drawn) [Compound 1118] | 5.11 | 108.1 nm | 0.051 | -3.96 mV | 95.9% | 1.48×10^4 RLU | 1.77×10^8 p/s/cm^2/sr |  |
| CCCCCCCCCC(CCCCCCCC)C(=O)OCC(COC(=O)C(CCCCCCCC)CCCCCCCCC)(COC(=O)C(CCCCCCCC)CCCCCCCCC)NCCOCCN(C)C (stereo not drawn) [Compound 1059] | 5.18 | 72.71 nm | 0.067 | -10.0 mV | 93.0% | 1.32×10^4 RLU | 4.94×10^5 p/s/cm^2/sr |  |
| CCCCCCCCCCCCCCCC(CC)C(=O)OCC(COC(=O)C(CC)CCCCCCCCCCCCCCC)(COC(=O)C(CC)CCCCCCCCCCCCCCC)NC(=O)CCCCN(C)CCCCO (stereo not drawn) [Compound 1113] | 5.91 | 58.00 nm | 0.082 | 4.57 mV | 100.3% | 3.43×10^4 RLU | 3.56×10^7 p/s/cm^2/sr |  |
| CCCCCCCCCC(CCCCCCCC)C(=O)OCC(COC(=O)C(CCCCCCCC)CCCCCCCCC)(COC(=O)C(CCCCCCCC)CCCCCCCCC)NCCC(=O)NCCN1CCNCC1 (stereo not drawn) [Compound 1111] |  | 110.3 nm | 0.103 | -0.902 mV | 83.2% | 3.29×10^4 RLU | 3.10×10^5 p/s/cm^2/sr |  |
| CCCCCCCCCCCCCCCC(CC)C(=O)OCC(COC(=O)C(CC)CCCCCCCCCCCCCCC)(COC(=O)C(CC)CCCCCCCCCCCCCCC)NCCC(=O)OCCN(C)C (stereo not drawn) [Compound 1029] | 5.41 | 77.94 nm | 0.057 | -3.71 mV | 90.6% | 8.23×10^4 RLU | 3.27×10^4 p/s/cm^2/sr |  |
| CCCCCCCCCCCCCCCC(CC)C(=O)OCC(COC(=O)C(CC)CCCCCCCCCCCCCCC)(COC(=O)C(CC)CCCCCCCCCCCCCCC)NCCC(=O)NCCN(C)CCNC(=N)N (stereo not drawn) [Compound 1140] |  | 63.21 nm | 0.127 | 4.39 mV | 92.4% | 2.13×10^4 RLU | 6.21×10^4 p/s/cm^2/sr |  |
| CCCCCCCCCCCCCCCC(CC)C(=O)OCC(COC(=O)C(CC)CCCCCCCCCCCCCCC)(COC(=O)C(CC)CCCCCCCCCCCCCCC)NCCCCCCN(C)CCCCO (stereo not drawn) [Compound 3426] |  | 85.51 nm | 0.104 | 2.23 mV | 95.5% | 3.01×10^5 RLU | 5.67×10^6 p/s/cm^2/sr |  |

More lines, main results first:

| Apparent pKa [1] | Particle Size [2] | Polydispersity Index (PDI) [2] | Zeta Potential [3] | Encapsulation Rate [4] | SMILES | HEK 293T Cell Luciferase Activity (HEK 293T cells) | Mouse Whole-Body Average Fluorescence Signal (female Balb/c mice) | fluorescence intensity of luciferase expressed in HEK 293T cells (HEK 293T cells; different doses (50-400 ng per well), Fig. 1) |
| --- | --- | --- | --- | --- | --- | --- | --- | --- |
| 6.10 | 55.44 nm | 0.076 | -0.105 mV | 91.7% | CCCCCCCCCCCCCCCC(CC)C(=O)OCC(COC(=O)C(CC)CCCCCCCCCCCCCCC)(COC(=O)C(CC)CCCCCCCCCCCCCCC)NCCC(=O)NCCN(C)C (stereo not drawn) [Compound 1005] | 1.01×10^8 RLU | 1.21×10^6 p/s/cm^2/sr | > 10^7 RLU |
| 5.75 | 82.41 nm | 0.123 | -2.23 mV | 90.7% | CCCCCCCCCCCCCCCC(CC)C(=O)OCC(COC(=O)C(CC)CCCCCCCCCCCCCCC)(COC(=O)C(CC)CCCCCCCCCCCCCCC)NCCC(=O)NCCN(CCCC)CCCC (stereo not drawn) [Compound 1013] | 9.87×10^4 RLU | 1.69×10^4 p/s/cm^2/sr |  |
| 6.05 | 80.07 nm | 0.051 | 0.811 mV | 87.4% | CCCCCCCCCCCCCCCC(CC)C(=O)OCC(COC(=O)C(CC)CCCCCCCCCCCCCCC)(COC(=O)C(CC)CCCCCCCCCCCCCCC)NCCC(=O)NCCN(CCC)CCC (stereo not drawn) [Compound 1012] | 6.61×10^5 RLU | 2.02×10^5 p/s/cm^2/sr |  |
|  | 102.3 nm | 0.136 | 4.27 mV | 80.3% | CCCCCCCCCCCCCCCC(CC)C(=O)OCC(COC(=O)C(CC)CCCCCCCCCCCCCCC)(COC(=O)C(CC)CCCCCCCCCCCCCCC)NCCC(=O)NCCN(CCCO)CCCO (stereo not drawn) [Compound 1015] | 6.27×10^7 RLU | 1.43×10^4 p/s/cm^2/sr |  |
| 6.30 | 60.38 nm | 0.193 | 2.31 mV | 91.8% | CCCCCCCCCCCCCCCC(CC)C(=O)OCC(COC(=O)C(CC)CCCCCCCCCCCCCCC)(COC(=O)C(CC)CCCCCCCCCCCCCCC)NCCC(=O)NCCN(CC)CC (stereo not drawn) [Compound 1011] | 8.22×10^7 RLU | 1.29×10^5 p/s/cm^2/sr |  |
